Common to all, as to type: ADME
Series [1] deals with T1, Albumin (Homo sapiens, UniProt P02768). The experiment in a line: Association rate constant for the interaction between the compound and serum albumin.
Series [2] deals with T1, Albumin. In words: Equilibrium dissociation constant for the interaction between the compound and serum albumin.
The target of series [3] is T1, Albumin. In words: Dissociation rate constant for the interaction between the compound and serum albumin.

T1 sequence (P02768 whole entry): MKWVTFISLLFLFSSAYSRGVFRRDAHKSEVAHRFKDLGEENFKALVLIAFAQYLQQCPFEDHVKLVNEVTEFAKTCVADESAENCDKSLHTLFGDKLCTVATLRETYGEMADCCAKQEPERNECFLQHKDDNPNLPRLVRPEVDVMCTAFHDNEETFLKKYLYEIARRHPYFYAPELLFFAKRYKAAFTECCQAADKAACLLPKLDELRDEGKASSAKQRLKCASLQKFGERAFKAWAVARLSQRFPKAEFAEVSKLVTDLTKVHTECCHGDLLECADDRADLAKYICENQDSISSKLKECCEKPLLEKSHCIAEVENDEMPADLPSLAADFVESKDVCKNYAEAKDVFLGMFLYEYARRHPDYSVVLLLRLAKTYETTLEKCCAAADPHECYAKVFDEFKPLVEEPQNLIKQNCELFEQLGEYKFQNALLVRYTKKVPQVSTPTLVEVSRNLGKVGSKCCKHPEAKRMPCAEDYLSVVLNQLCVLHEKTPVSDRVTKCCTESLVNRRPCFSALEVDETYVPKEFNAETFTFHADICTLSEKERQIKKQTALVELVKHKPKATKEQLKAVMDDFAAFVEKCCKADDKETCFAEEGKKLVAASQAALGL

Regarding `CC(C)(C)NC(=O)[C@@H]1C[C@@H]2CCCC[C@@H]2CN1C[C@@H](O)[C@H](Cc1ccccc1)NC(=O)[C@H](CC(N)=O)NC(=O)c1ccc2ccccc2n1`, the values for the kon on Albumin [1] (read-out: Kon1) and on Albumin [1] (read-out: Kon2) were 25000 M⁻¹ s⁻¹ and 282 M⁻¹ s⁻¹, respectively. Besides, the results for the Kd at Albumin [2] (read-out: KD1) and on Albumin [2] (read-out: KD2) were 34 µM and 301 µM, respectively. Moreover, on Albumin [3], the Koff1 came out at 0.856 s⁻¹. Besides, the Koff2 on Albumin [3] is 0.085 s⁻¹.
As to `CC(C)CN(C[C@@H](O)[C@H](Cc1ccccc1)NC(=O)O[C@H]1CCOC1)S(=O)(=O)c1ccc(N)cc1`, the kon at Albumin [1] (read-out: Kon1) came out at 22100 M⁻¹ s⁻¹; at Albumin [1] (read-out: Kon2), 208 M⁻¹ s⁻¹. Also, the Kd on Albumin [2] (read-out: KD1) was 124 µM; on Albumin [2] (read-out: KD2), 328 µM. This compound came in with a Koff1 on Albumin [3] of 2.75 s⁻¹. The same compound showed a Koff2 at Albumin [3] of 0.068 s⁻¹.
Consider `CC(=O)O[C@@]1(C2/C(C)=C(/O)C(=O)C3=C(C)[C@@H](OC(=O)[C@H](O)[C@H](CC(C)C)NC(=O)OC(C)(C)C)C[C@@](O)([C@H]2OC(=O)c2ccccc2)C3(C)C)CO[C@@H]1CCO` (stereo partly specified), for which the kon was determined as 5900 M⁻¹ s⁻¹ at Albumin [1] (read-out: Kon1) and 33.1 M⁻¹ s⁻¹ on Albumin [1] (read-out: Kon2). Further, the Kd was 319 µM at Albumin [2] (read-out: KD1) and 1820 µM on Albumin [2] (read-out: KD2). This compound displayed a Koff1 on Albumin [3] of 1.875 s⁻¹. This compound also displayed a Koff2 on Albumin [3] of 0.045 s⁻¹.
For the compound `CC(=O)O[C@H]1C(=O)[C@@]2(C)C([C@H](OC(=O)c3ccccc3)[C@]3(O)C[C@H](OC(=O)[C@H](O)[C@@H](NC(=O)c4ccccc4)c4ccccc4)C(C)=C1C3(C)C)[C@]1(OC(C)=O)CO[C@@H]1C[C@@H]2OC(=O)CCC(=O)O` (stereo partly specified), the figures for the kon on Albumin [1] (read-out: Kon1) and on Albumin [1] (read-out: Kon2) were 7300 M⁻¹ s⁻¹ and 36.4 M⁻¹ s⁻¹, respectively. The Kd was found to be 192 µM at Albumin [2] (read-out: KD1) and 1170 µM at Albumin [2] (read-out: KD2). The Koff1 on Albumin [3] worked out at 1.183 s⁻¹. In addition, the Koff2 at Albumin [3] was 0.033 s⁻¹.
On to `Cc1c(O)cccc1C(=O)N[C@@H](CSc1ccccc1)[C@H](O)CN1C[C@H]2CCCC[C@H]2C[C@H]1C(=O)NC(C)(C)C`, for which the kon at Albumin [1] (read-out: Kon1) was 1800 M⁻¹ s⁻¹; at Albumin [1] (read-out: Kon2) it was 12.6 M⁻¹ s⁻¹. Further, the figures for the Kd at Albumin [2] (read-out: KD1) and at Albumin [2] (read-out: KD2) were 230 µM and 6 µM, respectively. At Albumin [3], this compound had a Koff1 of 0.413 s⁻¹.
`COC(=O)N[C@H](C(=O)N[C@@H](Cc1ccccc1)[C@@H](O)CN(Cc1ccc(-c2ccccn2)cc1)NC(=O)[C@@H](NC(=O)OC)C(C)(C)C)C(C)(C)C` [ATAZANAVIR]: the kon is 9600 M⁻¹ s⁻¹ on Albumin [1] (read-out: Kon1) and 41.8 M⁻¹ s⁻¹ at Albumin [1] (read-out: Kon2). The values for the Kd at Albumin [2] (read-out: KD1) and at Albumin [2] (read-out: KD2) were 149 µM and 599 µM, respectively. Further, the Koff1 on Albumin [3] was 1.43 s⁻¹. For the same compound, the Koff2 at Albumin [3] is 0.025 s⁻¹.
Turning to `CC(=O)O[C@@]12CO[C@@H]1C[C@H](O)[C@@]1(C)C(=O)[C@H](O)C3=C(C)[C@@H](OC(=O)[C@H](O)[C@@H](NC(=O)OC(C)(C)C)c4ccccc4)C[C@@](O)([C@@H](OC(=O)c4ccccc4)[C@H]21)C3(C)C.O.O.O` [DOCETAXEL], the values for the kon at Albumin [1] (read-out: Kon1) and on Albumin [1] (read-out: Kon2) were 7700 M⁻¹ s⁻¹ and 43.7 M⁻¹ s⁻¹, respectively. The Kd at Albumin [2] (read-out: KD1) turned out to be 199 µM; on Albumin [2] (read-out: KD2) it was 2110 µM. In addition, the Koff1 at Albumin [3] was found to be 1.505 s⁻¹. At Albumin [3], the Koff2 stood at 0.069 s⁻¹.
In the case of `Cc1cccc(C)c1OCC(=O)N[C@@H](Cc1ccccc1)[C@@H](O)C[C@H](Cc1ccccc1)NC(=O)[C@H](C(C)C)N1CCCNC1=O` [LOPINAVIR], the kon at Albumin [1] (read-out: Kon1) amounted to 25900 M⁻¹ s⁻¹; at Albumin [1] (read-out: Kon2), 10.1 M⁻¹ s⁻¹. The Kd at Albumin [2] (read-out: KD1) came to 24 µM; on Albumin [2] (read-out: KD2) it was 6 µM. The compound further had a Koff1 on Albumin [3] of 0.619 s⁻¹.
